In PubChem BioAssay AID493156 (Johns Hopkins Ion Channel Center, 2011):

Biological target: Voltage-gated inwardly rectifying potassium channel KCNH2 (Homo sapiens) (UniProt Q12809)
Test: blockers of hERG current – automated electrophysiology, CHO cells, Ionworks Quattro, primary screen (AID 493156)
Details: automated patch clamp current, stronger effect = lower value

Chain of Voltage-gated inwardly rectifying potassium channel KCNH2 (Homo sapiens) (Q12809 whole entry, looked up): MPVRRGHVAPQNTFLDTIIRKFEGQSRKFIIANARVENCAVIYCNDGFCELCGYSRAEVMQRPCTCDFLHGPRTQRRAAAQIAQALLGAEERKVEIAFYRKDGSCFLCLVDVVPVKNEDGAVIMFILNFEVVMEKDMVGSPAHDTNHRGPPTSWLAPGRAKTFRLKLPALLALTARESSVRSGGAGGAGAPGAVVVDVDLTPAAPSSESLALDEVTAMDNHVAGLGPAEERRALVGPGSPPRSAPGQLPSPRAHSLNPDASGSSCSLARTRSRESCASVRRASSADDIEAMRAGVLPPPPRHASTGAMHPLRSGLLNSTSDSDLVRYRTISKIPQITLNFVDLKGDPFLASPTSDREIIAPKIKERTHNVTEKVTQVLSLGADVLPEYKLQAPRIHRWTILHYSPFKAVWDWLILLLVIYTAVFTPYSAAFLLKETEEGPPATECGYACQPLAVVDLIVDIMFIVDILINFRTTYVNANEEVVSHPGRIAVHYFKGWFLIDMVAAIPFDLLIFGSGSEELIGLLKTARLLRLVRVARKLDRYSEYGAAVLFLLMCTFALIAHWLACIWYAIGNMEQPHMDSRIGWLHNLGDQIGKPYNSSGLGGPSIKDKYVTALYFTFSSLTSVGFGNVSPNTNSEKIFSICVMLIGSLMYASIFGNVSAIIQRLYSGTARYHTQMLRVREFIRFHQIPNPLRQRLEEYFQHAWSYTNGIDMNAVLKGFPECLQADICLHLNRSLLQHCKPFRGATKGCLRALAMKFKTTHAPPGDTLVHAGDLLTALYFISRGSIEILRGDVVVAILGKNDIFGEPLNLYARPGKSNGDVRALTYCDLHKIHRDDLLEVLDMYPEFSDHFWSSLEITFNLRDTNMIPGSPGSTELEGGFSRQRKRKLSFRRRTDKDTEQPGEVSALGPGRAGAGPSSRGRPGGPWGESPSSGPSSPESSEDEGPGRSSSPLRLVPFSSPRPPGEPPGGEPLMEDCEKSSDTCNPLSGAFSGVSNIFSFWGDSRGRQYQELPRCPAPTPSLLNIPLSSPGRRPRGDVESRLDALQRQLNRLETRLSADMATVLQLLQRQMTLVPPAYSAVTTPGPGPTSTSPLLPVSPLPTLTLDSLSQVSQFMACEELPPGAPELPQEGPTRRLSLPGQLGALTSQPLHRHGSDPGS

`CCn1cc(CN2CCC(C(=O)Nc3cccc(-c4cccc(Cl)c4)c3)CC2)c(C)n1` gave a current change, negative = inhibition (at 10 µM) of -100% and a current change, negative = inhibition (current change, at 1 µM) of -48.6%.
Work on `CCc1ccc(CN2CCC(Oc3ccc(C(=O)N4CCCC4)cc3)CC2)cc1` yielded a current change, negative = inhibition (at 10 µM) of -100% and a current change, negative = inhibition (current change, at 1 µM) of -87.6%.
Work on `Cc1ccccc1C(=O)Nc1ccnn1C1CCN(Cc2cccnc2)CC1` yielded a current change, negative = inhibition (at 10 µM) of -100% and a current change, negative = inhibition (current change, at 1 µM) of -58.5%.
`Cc1occc1C(=O)N1CCN(c2ccc([N+](=O)[O-])cc2)CC1` gave a current change, negative = inhibition (at 10 µM) of -100% and a current change, negative = inhibition (current change, at 1 µM) of -55.3%.
`Cc1cc(C)n(CCCN2CCC(C(=O)Nc3cccc(-c4cccc(F)c4)c3)CC2)n1` was tested, and the current change, negative = inhibition (at 10 µM) was -100% and the current change, negative = inhibition (current change, at 1 µM) was -69.7%.
`Cc1ccccc1CN1CCN(C(=O)c2cc(-c3ccncc3)nc3ccccc23)CC1` was tested, and the current change, negative = inhibition (at 10 µM) was -100% and the current change, negative = inhibition (current change, at 1 µM) was -25.6%.
With `Cc1ccc(-n2ncc3c2CCCC3NC(=O)c2ccoc2)cc1C` (stereo not drawn) the current change, negative = inhibition (at 10 µM) was -100% and the current change, negative = inhibition (current change, at 1 µM) was -88.6%.
Molecule `O=C(c1cccc(-c2ccco2)c1)N1CCCC(N2CCN(c3ccc(F)cc3)CC2)C1` (stereo not drawn) has a current change, negative = inhibition (at 10 µM) of -100% and a current change, negative = inhibition (current change, at 1 µM) of -45.2%.
For `CSc1cccc(CN2CCCC(CNC(=O)c3ccco3)C2)c1` (stereo not drawn), the current change, negative = inhibition (at 10 µM) was -100% and the current change, negative = inhibition (current change, at 1 µM) was -57.7%.
